Converted amounts (≈) assume the structure as drawn.
Tests used:
BT-474 = test: Cytotoxicity against human BT474 cells after 3 days by MTT assay; assay type: functional, cell-based; settings: BT-474, 72 h
[1] = Cytotoxicity against human ChaGo cells after 3 days by MTT assay; assay type: functional, cell-based; settings: 72 h
HepG2 = test: Cytotoxicity against human HepG2 cells after 3 days by MTT assay; assay type: functional, cell-based; settings: HepG2, 72 h
SW-620 = test: Cytotoxicity against human SW620 cells after 3 days by MTT assay; assay type: functional, cell-based; settings: SW-620, 72 h
[2] = Cytotoxicity against human KATO III cells after 3 days by MTT assay; assay type: functional, cell-based, KATO III cell; settings: 72 h

| Structure (SMILES) | IC50 (BT-474) | IC50 [1] | IC50 (HepG2) | IC50 (SW-620) | IC50 [2] |
| --- | --- | --- | --- | --- | --- |
| C=C(CO)[C@@H]1CC[C@H]2[C@]3(CC[C@]4(C)[C@@H]([C@H](C)CCC=C(C)C)CC[C@@]24C)C[C@]13CCC(=O)O [SECAUBRYENOL] | > 10 µg/mL | > 10 µg/mL | > 10 µg/mL | > 10 µg/mL | > 10 µg/mL |
| C=C1C(=O)O[C@@H]2C[C@@H]3[C@]4(CC[C@]5(C)[C@@H]([C@H](C)CC/C=C(\C)C=O)CC[C@@]35C)C[C@]4(CCC(=O)O)[C@H]12 [CORONALOLIDE] | 6.59 µg/mL (≈ 13.7 µM) | 5.42 µg/mL (≈ 11.2 µM) | 6.41 µg/mL (≈ 13.3 µM) | 4.98 µg/mL (≈ 10.3 µM) | 5.85 µg/mL (≈ 12.1 µM) |
| C=C1C(=O)O[C@@H]2C[C@@H]3[C@]4(CC[C@]5(C)[C@@H]([C@H](C)CC/C=C(\C)CO)CC[C@@]35C)C[C@]4(CCC(=O)OC)[C@H]12 [SOOTEPIN A] | 5.92 µg/mL (≈ 11.9 µM) | 3.97 µg/mL (≈ 7.96 µM) | 2.9 µg/mL (≈ 5.82 µM) | 1.8 µg/mL (≈ 3.61 µM) | 2.1 µg/mL (≈ 4.21 µM) |
| COc1cccc2c1C(=O)c1c(O)c3c(c(O)c1C2=O)C[C@@](O)(C(=O)CO)C[C@@H]3O[C@H]1C[C@H](N)[C@H](O)[C@H](C)O1 [DOXORUBICIN] | 8.92 µg/mL (≈ 16.4 µM) | 3.98 µg/mL (≈ 7.32 µM) | 3.36 µg/mL (≈ 6.18 µM) | > 10 µg/mL | 5.45 µg/mL (≈ 10 µM) |
| C=C1C(=O)O[C@H]2C[C@@H]3[C@@]4(CC[C@]5(C)[C@H]([C@@H](C)CC/C=C(\C)C=O)CC[C@@]35C)C[C@]4(CCC(=O)OC)[C@@H]12 [CORONALOLIDE METHYL ESTER] | > 10 µg/mL | > 10 µg/mL | 6.8 µg/mL (≈ 13.7 µM) | 6.19 µg/mL (≈ 12.5 µM) | 8.64 µg/mL (≈ 17.4 µM) |
| C=C(CO)[C@@H]1CC[C@@H]2[C@]3(CC[C@]4(C)[C@@H]([C@H](C)CC/C=C(\C)C=O)CC[C@@]24C)C[C@]13CCC(=O)OC [SOOTEPIN D] | > 10 µg/mL | > 10 µg/mL | > 10 µg/mL | > 10 µg/mL | 7.35 µg/mL (≈ 15.2 µM) |
| C=C1C(=O)O[C@@H]2C[C@@H]3[C@]4(CC[C@]5(C)[C@@H]([C@H](C)CCC=C(C)C)CC[C@@]35C)C[C@]4(CCC(=O)O)[C@H]12 [SOOTEPIN B] | 4.98 µg/mL (≈ 10.6 µM) | 5.24 µg/mL (≈ 11.2 µM) | 5.86 µg/mL (≈ 12.5 µM) | 5.57 µg/mL (≈ 11.9 µM) | 3.68 µg/mL (≈ 7.85 µM) |
| C=C(C)[C@@H]1CC[C@@H]2[C@]3(CC[C@]4(C)[C@@H]([C@H](C)CCC=C(C)C)CC[C@@]24C)C[C@]13CCC(=O)O [SOOTEPIN E] | 6.07 µg/mL (≈ 13.8 µM) | 5.2 µg/mL (≈ 11.8 µM) | 3.14 µg/mL (≈ 7.12 µM) | 4.22 µg/mL (≈ 9.58 µM) | 1.91 µg/mL (≈ 4.33 µM) |
| C=C(CO)[C@@H]1CC[C@@H]2[C@]3(CC[C@]4(C)[C@@H]([C@H](C)CCC=C(C)C)CC[C@@]24C)C[C@]13CCC(=O)OC [SOOTEPIN C] | > 10 µg/mL | > 10 µg/mL | 3.49 µg/mL (≈ 7.41 µM) | > 10 µg/mL | 7.79 µg/mL (≈ 16.5 µM) |
| C=C1C(=O)O[C@@H]2C[C@@H]3[C@]4(CC[C@]5(C)[C@@H]([C@H](C)CCC=C(C)C)CC[C@@]35C)C[C@]4(CCC(=O)OC)[C@H]12 [TUBIFEROLIDE METHYL ESTER] | 5.33 µg/mL (≈ 11 µM) | 4.08 µg/mL (≈ 8.45 µM) | 3.41 µg/mL (≈ 7.06 µM) | 5.78 µg/mL (≈ 12 µM) | 4.9 µg/mL (≈ 10.2 µM) |

Source: ChEMBL document CHEMBL1153026, “Cytotoxic 3,4-seco-cycloartane triterpenes from Gardenia sootepensis” (J Nat Prod, 2009)
